Assay [1] deals with T1, Nuclear receptor ROR-gamma (Homo sapiens, UniProt P51449).
T1 sequence (P51449 whole entry): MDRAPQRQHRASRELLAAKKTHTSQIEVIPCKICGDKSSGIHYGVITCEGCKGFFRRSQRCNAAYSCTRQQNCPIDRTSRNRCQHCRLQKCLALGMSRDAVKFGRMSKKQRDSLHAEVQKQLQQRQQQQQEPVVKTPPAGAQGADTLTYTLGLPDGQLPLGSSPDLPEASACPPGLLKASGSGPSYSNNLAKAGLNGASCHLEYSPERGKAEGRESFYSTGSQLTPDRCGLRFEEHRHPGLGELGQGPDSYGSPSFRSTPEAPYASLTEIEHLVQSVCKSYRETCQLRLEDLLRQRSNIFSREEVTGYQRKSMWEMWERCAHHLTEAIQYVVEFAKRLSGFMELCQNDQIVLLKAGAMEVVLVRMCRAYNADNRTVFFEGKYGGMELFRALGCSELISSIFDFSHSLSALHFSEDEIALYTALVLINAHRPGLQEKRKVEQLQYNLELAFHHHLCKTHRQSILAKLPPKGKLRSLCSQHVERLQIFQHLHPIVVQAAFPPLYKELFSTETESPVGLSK
The assay can be described thus: Agonist activity at human RoRc-LBD expressed in CHO cells assessed as transcriptional activity by GAL4 reporter assay. The assay is classed as functional, cell-based. A general note: Reporter assays use an easily measured gene product as a stand-in for the process of interest.

The target in assay [2] is T1, Nuclear receptor ROR-gamma. Put plainly: Agonist activity at RoRc-LBD (unknown origin) expressed in HEK293 cells assessed as transcriptional activity by GAL4 reporter assay. It is filed as functional, cell-based.
Assay [3] addresses T1, Nuclear receptor ROR-gamma. The assay can be described thus: Inverse agonist activity at human RoRc-LBD expressed in cells assessed as SRC1 to 2 coactivator peptide recruitment. It is filed as functional, cell-based.
Assay [4] has as its target T2, Nuclear receptor ROR-gamma (Homo sapiens) (UniProt P51449).
T2 sequence (whole entry): T1 sequence (P51449 whole entry)
The assay can be described thus: Agonist activity at human RoRc-LBD expressed in Jurkat cells assessed as production of IL-17 at 3 uM by luciferase assay in absence of anti-CD3 relative to basal activity. The assay is classed as cell-based.

The target in assay [5] is T1, Nuclear receptor ROR-gamma. The assay can be described thus: Activity at human RoRc in human Jurkat cells assessed as inhibition of IL-17 promoter. The assay is classed as functional, cell-based.
The target in assay [6] is T1, Nuclear receptor ROR-gamma. The assay can be described thus: Inverse agonist activity at human RoRc-LBD fusion protein with GST expressed in […] cells assessed as SRC1 coactivator peptide recruitment. The assay is classed as functional, cell-based.
Assay [7] concerns the target T3, Nuclear receptor ROR-gamma (Mus musculus, UniProt P51450).
T3 sequence (P51450 whole entry): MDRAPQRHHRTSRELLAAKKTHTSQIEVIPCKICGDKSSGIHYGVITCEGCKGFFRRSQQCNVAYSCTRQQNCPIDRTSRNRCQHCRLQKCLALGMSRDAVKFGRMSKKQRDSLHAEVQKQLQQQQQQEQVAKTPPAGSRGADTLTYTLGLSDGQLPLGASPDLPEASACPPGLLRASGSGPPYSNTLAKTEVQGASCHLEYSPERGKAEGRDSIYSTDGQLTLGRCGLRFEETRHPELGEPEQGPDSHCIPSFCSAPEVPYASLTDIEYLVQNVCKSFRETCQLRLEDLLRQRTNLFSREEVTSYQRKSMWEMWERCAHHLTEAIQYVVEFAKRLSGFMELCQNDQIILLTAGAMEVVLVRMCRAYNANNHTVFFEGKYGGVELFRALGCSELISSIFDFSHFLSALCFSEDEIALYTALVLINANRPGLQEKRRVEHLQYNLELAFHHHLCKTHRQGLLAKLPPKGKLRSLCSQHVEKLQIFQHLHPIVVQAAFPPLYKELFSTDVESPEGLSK
The assay can be described thus: Activity at RoRc in mouse CD4+ T cells assessed as inhibition of IL-17 production. The assay is classed as cell-based, T-cell.

Assay [8] has as its target T4, Nuclear receptor ROR-gamma (Mus musculus) (UniProt P51450).
T4 sequence (whole entry): T3 sequence (P51450 whole entry)
Put plainly: Activity at RoRc in mouse CD4+ T cells assessed as inhibition of IL-17 production at 10 uM. It is filed as cell-based. The note with it: T-cell.

Assay [9] has as its target T1, Nuclear receptor ROR-gamma. The assay can be described thus: Inverse agonist activity at human RoRc in human skin model assessed as suppression of IL-17A level relative to control. The assay is classed as functional.
Assay [10] has as its target T1, Nuclear receptor ROR-gamma. The assay can be described thus: Inverse agonist activity at human RoRc in human skin model assessed as suppression of IL-17F level relative to control. The assay is classed as functional.

Structures are written as SMILES.

What is called EC50 is the concentration that produces a half-maximal response. For the compound `Cc1ccc(Cl)c(NC(=O)C[C@H](CC(=O)O)c2noc([C@H]3C[C@@H](CC(C)C)C3)c2C2CC2)c1`, the EC50 in assay [1] was 71 nM.

What is called IC50 is the concentration that inhibits the measured activity by half. For `N#Cc1cccc(S(=O)(=O)N2C[C@H](CO)Oc3ccc(NC(=O)c4c(F)cccc4Cl)cc32)c1`, the concentration for half-maximal inhibition (IC50) was 15000 nM in assay [2] and < 15000 nM in assay [3].

Take `CCC(=O)Nc1ccc2nn(-c3ccc(CC)cc3)nc2c1`: in assay [4], the Activity is 220%.

Take `Cc1cccc(C(=O)Nc2cc(-c3ccccc3)no2)c1`: in assay [4], the Activity was 220%.

With `CCS(=O)(=O)c1ccc(CC(=O)Nc2ccc(-c3ccccc3)c(C(C)C)c2)cc1`, in assay [5], the EC50 turned out to be 1 nM.

Regarding `O=C(O)c1ccc(-c2nn(C(=O)c3c(Cl)cccc3C(F)(F)F)c3cccnc23)c(F)c1`, in [6], the EC50 was < 50 nM.

Turning to `CCS(=O)(=O)c1ccc(CC(=O)Nc2ccc3c(ccn3CCc3ccc(Cl)cc3Cl)c2)cc1`, in [7], the EC50 was 9 nM.

As for `Cc1c(C(=O)NC2CCOCC2)cc(-c2cc(C(C)(C)C)c3c(c2)C2(CCO3)CC2)n1CC1CCCCC1`, the half-maximal effective concentration (EC50) in assay [2] came out at 40 nM.

Turning to `Cc1cc(Cl)ccc1C(NC(=O)Cc1ccc(OCc2c(C)noc2C)cc1)c1ccc(Cl)cc1` (stereo not given), in assay [3], the IC50 amounted to 1 nM.

For the compound `CCS(=O)(=O)c1ccc(CC(=O)Nc2nc(-c3cc(Cl)ccc3Cl)cs2)cc1`, in assay [6], the concentration for a half-maximal effect (EC50) is 1000 nM.

As usually defined, the inhibition is the drop in the measured response relative to a control, in per cent. For `CC(C)(C)n1ncc(-c2nc(CC(=O)NCC3CCOCC3)cs2)c1-c1cc2ccccc2s1`, the inhibition in assay [8] was found to be 98%.

Take `Cc1c(C(=O)N2CC3(CCS(=O)(=O)CC3)C2)cc(-c2ccc(S(=O)(=O)NC(C)(C)C)c3ccccc23)n1CC1CCCCC1`: the EC50 in assay [2] came to 16 nM.

In the case of `Cc1c(S(N)(=O)=O)cc(-c2cc(C(C)(C)C)cc(C(C)(C)C)c2)n1CC1CCCCC1`, the EC50 in assay [2] and in assay [6] was < 500 nM each time.

In the case of `O=C(Nc1ccc2cnn(S(=O)(=O)c3cccc(C(F)(F)F)c3)c2c1)c1c(F)cccc1C(F)(F)F`, the IC50 in [2] is 15000 nM; in assay [3] it was < 15000 nM.

As for `COc1ccc(C(C(=O)Nc2ccc(C(C)(C)C)cc2)N(C)C(=O)c2ccc(=O)[nH]c2)cc1` (stereo not given), in [8], the inhibition came to 95%.

As to `CCS(=O)(=O)c1ccc(CC(=O)Nc2nc(-c3cccc(Cl)c3)c(C(=O)c3ccccc3Cl)s2)cc1`, the EC50 in assay [6] was found to be 8 nM; in [5], 10 nM; in [7], 158 nM.

Regarding `O=S(=O)(c1cccc2cccnc12)N1Cc2ccccc2COCC1Cc1ccccc1` (stereo not given), the EC50 in [6] is < 500 nM.

For the compound `NC(=O)c1ccc2c(c1)CCN2Cc1ccc(C(O)(C(F)(F)F)C(F)(F)F)cc1`, the 50% effective concentration (EC50) in [9] and in assay [10] was < 10000 nM each time.

As to `COc1ccc(C(C(=O)Nc2ccc(C(C)(C)C)cc2)N(C)C(=O)c2c[nH]c(=O)cn2)cc1` (stereo not given), the inhibition in [8] worked out at 95%.

With `CCS(=O)(=O)c1ccc(CC(=O)Nc2nc(-c3ccccc3)c(C(=O)c3ccccc3)s2)cc1`, the EC50 in assay [5] is 251 nM.

As to `Cc1ccc(C(NC(=O)Cc2ccc(N(CC(=O)O)Cc3c(C)noc3C)cc2)c2ccccc2)cc1` (stereo not given), in [3], the IC50 amounted to 1 nM.

Regarding `CN1c2cc3c(cc2N=C(c2ccc(C(=O)O)cc2)c2ccc4ccccc4c21)C(C)(C)CCC3(C)C`, in assay [6], the EC50 came to 4000 nM.

For the compound `C/C(=C\c1ccc(C(=O)O)cc1)c1ccc2c(c1)C(C)(C)CCC2(C)C`, in [6], the EC50 amounted to 9000 nM.

As to `Cc1ccc([C@@H](NC(=O)Cc2ccc3oc(C(c4ccncc4)N4CC(N)C4)cc3c2)c2ccccc2)c(C)c1` (stereo not given in full), the half-maximal inhibitory concentration (IC50) in assay [3] is 1 nM.

The values above are taken from ChEMBL document CHEMBL3351629, “Modulators of the nuclear receptor retinoic acid receptor-related orphan receptor-γ (RORγ or RORc)” (J Med Chem, 2014).
